Assay results from patent publication US6914045B2, “Glycopeptide antibiotics” (Wyeth Holdings Corporation, priority 2001, dated 2005).
Values after ≈ are worked out from the molar mass of the structure shown.

Assays:
Assay in all cases: in vitro antibacterial evaluation, MIC by broth dilution
Assay type in all cases: cell-based
Escherichia coli = details: 18 hours at 35° C.
Enterococcus sp. = details: broth dilution, 18 hours at 35° C.
Procedure, shortened: (§1)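 Step 1: dilute antibiotic across 64-0.06 μg/mL in Muller-Hinton II […]. Step 2: inoculate at 5×10^5 CFU/mL.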

Staphylococcus sp. = details: broth dilution, 18 hours at 35° C.
Procedure, shortened: as §1

Streptococcus sp. = details: broth dilution, 18 hours at 35° C.
Procedure, shortened: as §1

For `CC(c1ccccc1)C1NC(=O)CNC(=O)C(CO)NC(=O)C(C(O)C2CNC(=N)N2C2OC(CO)C(O)C(O)C2O)NC(=O)C(C(O)C2CNC(=N)N2)NC(=O)C(Cc2ccc(OC3OC(CO)C(OC4OC5COC6(CCCCCCCCCCCC6)OC5C(O)C4O)C(O)C3O)cc2)NC1=O` (stereo not shown) [Example 210], the “MIC Escherichia coli (ATCC 25922)” value (Escherichia coli) was >64 µg/mL, the “MIC Escherichia coli (GC 4559)” value (Escherichia coli) was >64 µg/mL and the “MIC Escherichia coli (GC 4560)” value (Escherichia coli) was 64 µg/mL (≈ 43.4 µM). The “MIC Enterococcus avium (GC 4558)” value (Enterococcus sp.) was 16 µg/mL (≈ 10.9 µM), the “MIC Enterococcus faecalis (ATCC 29212)” value (Enterococcus sp.) was 32 µg/mL (≈ 21.7 µM) and the “MIC Enterococcus faecalis (GC 2242)” value (Enterococcus sp.) was 16 µg/mL (≈ 10.9 µM). For the same molecule, the “MIC Enterococcus faecalis (GC 2691)” value (Enterococcus sp.) was 8 µg/mL (≈ 5.43 µM), the “MIC Enterococcus faecalis (GC 3059)” value (Enterococcus sp.) was 32 µg/mL (≈ 21.7 µM) and the “MIC Enterococcus faecalis (GC 4552)” value (Enterococcus sp.) was 32 µg/mL (≈ 21.7 µM). For the same molecule, the “MIC Enterococcus faecalis (GC 4553)” value (Enterococcus sp.) was 16 µg/mL (≈ 10.9 µM), the “MIC Enterococcus faecalis (GC 4554)” value (Enterococcus sp.) was 32 µg/mL (≈ 21.7 µM) and the “MIC Enterococcus faecalis (GC 6189)” value (Enterococcus sp.) was 16 µg/mL (≈ 10.9 µM). The “MIC Enterococcus faecium (GC 2243)” value (Enterococcus sp.) was 32 µg/mL (≈ 21.7 µM), the “MIC Enterococcus faecium (GC 4556)” value (Enterococcus sp.) was 32 µg/mL (≈ 21.7 µM) and the “MIC Enterococcus faecium (GC 4557)” value (Enterococcus sp.) was 32 µg/mL (≈ 21.7 µM). The “MIC Enterococcus faecalis (ATCC 29212)” value (Enterococcus sp.; inoculum 5×10^5 CFU/mL, strain ATCC 29212) was 32 µg/mL (≈ 21.7 µM), the “MIC Enterococcus faecalis (GC 2242)” value (Enterococcus sp.; inoculum 5×10^5 CFU/mL, strain GC 2242) was 16 µg/mL (≈ 10.9 µM) and the “MIC Enterococcus faecium (GC 2243)” value (Enterococcus sp.; inoculum 5×10^5 CFU/mL, strain GC 2243) was 32 µg/mL (≈ 21.7 µM). The “MIC Enterococcus faecalis (GC 2691)” value (Enterococcus sp.; inoculum 5×10^5 CFU/mL, strain GC 2691) was 8 µg/mL (≈ 5.43 µM), the “MIC Enterococcus faecalis (GC 3059)” value (Enterococcus sp.; inoculum 5×10^5 CFU/mL, strain GC 3059) was 32 µg/mL (≈ 21.7 µM) and the “MIC Enterococcus faecalis (GC 4552)” value (Enterococcus sp.; inoculum 5×10^5 CFU/mL, strain GC 4552) was 32 µg/mL (≈ 21.7 µM). For the same molecule, the “MIC Enterococcus faecalis (GC 4553)” value (Enterococcus sp.; inoculum 5×10^5 CFU/mL, strain GC 4553) was 16 µg/mL (≈ 10.9 µM), the “MIC Enterococcus faecalis (GC 4554)” value (Enterococcus sp.; inoculum 5×10^5 CFU/mL, strain GC 4554) was 32 µg/mL (≈ 21.7 µM) and the “MIC Enterococcus faecium (GC 4556)” value (Enterococcus sp.; inoculum 5×10^5 CFU/mL, strain GC 4556) was 32 µg/mL (≈ 21.7 µM). For the same molecule, the “MIC Enterococcus faecium (GC 4557)” value (Enterococcus sp.; inoculum 5×10^5 CFU/mL, strain GC 4557) was 32 µg/mL (≈ 21.7 µM), the “MIC Enterococcus avium (GC 4558)” value (Enterococcus sp.; inoculum 5×10^5 CFU/mL, strain GC 4558) was 16 µg/mL (≈ 10.9 µM) and the “MIC Enterococcus faecalis (GC 6189)” value (Enterococcus sp.; inoculum 5×10^5 CFU/mL, strain GC 6189) was 16 µg/mL (≈ 10.9 µM). For the same molecule, the “MIC Staphylococcus aureus (ATCC 29213)” value (Staphylococcus sp.; strain ATCC 29213) was 32 µg/mL (≈ 21.7 µM), the “MIC Staphylococcus aureus (GC 1131)” value (Staphylococcus sp.; strain GC 1131) was 32 µg/mL (≈ 21.7 µM) and the “MIC Staphylococcus aureus (GC 3051)” value (Staphylococcus sp.; strain GC 3051) was 32 µg/mL (≈ 21.7 µM). The “MIC Staphylococcus aureus (GC 3053)” value (Staphylococcus sp.; strain GC 3053) was 32 µg/mL (≈ 21.7 µM), the “MIC Staphylococcus aureus (GC 4541)” value (Staphylococcus sp.; strain GC 4541) was 32 µg/mL (≈ 21.7 µM) and the “MIC Staphylococcus aureus (GC 4542)” value (Staphylococcus sp.; strain GC 4542) was 32 µg/mL (≈ 21.7 µM). The “MIC Staphylococcus aureus-SMITH (GC 4543)” value (Staphylococcus sp.; strain GC 4543) was 32 µg/mL (≈ 21.7 µM), the “MIC Staphylococcus aureus (GC 4544)” value (Staphylococcus sp.; strain GC 4544) was 32 µg/mL (≈ 21.7 µM) and the “MIC Staphylococcus aureus (GC 4545)” value (Staphylococcus sp.; strain GC 4545) was 32 µg/mL (≈ 21.7 µM). The “MIC Staphylococcus haemolyticus (GC 4546)” value (Staphylococcus sp.; strain GC 4546) was 32 µg/mL (≈ 21.7 µM), the “MIC Coagulase Negative Staphylococcus (GC 4547)” value (Staphylococcus sp.; strain GC 4547) was 32 µg/mL (≈ 21.7 µM) and the “MIC Coagulase Negative Staphylococcus (GC 4548)” value (Staphylococcus sp.; strain GC 4548) was 32 µg/mL (≈ 21.7 µM). The “MIC Coagulase Negative Staphylococcus (GC 4549)” value (Staphylococcus sp.; strain GC 4549) was 8 µg/mL (≈ 5.43 µM), the “MIC Coagulase Negative Staphylococcus (GC 4551)” value (Staphylococcus sp.; strain GC 4551) was 32 µg/mL (≈ 21.7 µM) and the “MIC Coagulase Negative Staphylococcus (GC 6257)” value (Staphylococcus sp.; strain GC 6257) was 32 µg/mL (≈ 21.7 µM). For the same molecule, the “MIC Streptococcus agalactiae (GC 4564)” value (Streptococcus sp.) was 0.25 µg/mL (≈ 0.17 µM), the “MIC Streptococcus pneumoniae (ATCC 6301)” value (Streptococcus sp.) was 0.25 µg/mL (≈ 0.17 µM) and the “MIC Streptococcus pneumoniae (GC 1894)” value (Streptococcus sp.) was <0.06 µg/mL. The “MIC Streptococcus pneumoniae (GC 4565)” value (Streptococcus sp.) was <0.06 µg/mL, the “MIC Streptococcus pyogenes (GC 4563)” value (Streptococcus sp.) was 2 µg/mL (≈ 1.36 µM) and the “MIC Streptococcus pneumoniae (ATCC 6301)” value (Streptococcus sp.; inoculum 5×10^5 CFU/mL, strain ATCC 6301) was 0.25 µg/mL (≈ 0.17 µM). For the same molecule, the “MIC Streptococcus pneumoniae (GC 1894)” value (Streptococcus sp.; inoculum 5×10^5 CFU/mL, strain GC 1894) was <0.06 µg/mL, the “MIC Streptococcus pyogenes (GC 4563)” value (Streptococcus sp.; inoculum 5×10^5 CFU/mL, strain GC 4563) was 2 µg/mL (≈ 1.36 µM) and the “MIC Streptococcus agalactiae (GC 4564)” value (Streptococcus sp.; inoculum 5×10^5 CFU/mL, strain GC 4564) was 0.25 µg/mL (≈ 0.17 µM). For the same molecule, the “MIC Streptococcus pneumoniae (GC 4565)” value (Streptococcus sp.; inoculum 5×10^5 CFU/mL, strain GC 4565) was <0.06 µg/mL.
